# Assay results taken from patent US11472798B2 (Mission Therapeutics Limited, priority 2014, dated 2022).
# Biological target: T1, UCHL1 (Homo sapiens, UniProt P09936)
# T1 construct: made in house; host or cells: HEK293T
# T1 sequence (P09936 1-223): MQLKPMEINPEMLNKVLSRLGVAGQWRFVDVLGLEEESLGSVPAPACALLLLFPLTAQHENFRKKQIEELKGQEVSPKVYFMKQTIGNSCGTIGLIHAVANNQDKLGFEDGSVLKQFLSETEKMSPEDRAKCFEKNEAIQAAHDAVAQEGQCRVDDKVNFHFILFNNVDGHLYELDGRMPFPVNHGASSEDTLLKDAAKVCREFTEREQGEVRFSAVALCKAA
# Experiment: UCHL1 biochemical IC50 assay (fluorescence polarisation)
# Conditions: 30 min enzyme/compound pre-incubation at room temp, read after 2 hr incubation, read-out: Activity range (UCHL1 biochemical IC50 assay)
# Text: Biological Activity of Compounds of the Invention Abbreviations: TAMRA carboxytetramethylrhodamine PCR polymerase chain reaction PBS phosphate buffered saline EDTA ethylenediaminetetraacetic acid Tris 2-amino-2-(hydroxymethyl)-1,3-propanediol NP-40 Nonidet P-40, octylphenoxypolyethoxyethanol BSA bovine serum albumin In Vitro UCHL1 Inhibition Assay Expression and Purification of UCHL1
# The UCHL1 construct was PCR amplified and cloned into a pFLAG-CMV-6a vector (Sigma-Aldrich) with an N-terminal FLAG tag. HEK293T cells were transfected with FLAG-UCHL1 using TransIT-LT1 transfection reagent (Mirus) according to the manufacturer's instructions. Cells were harvested 40 hours after transfection. Cells were washed once with PBS and scraped in lysis buffer (50 mM Tris, pH 7.5, 150 mM NaCl, 3 mM EDTA, 0.5% NP40, 10% glycerol, 5 mM beta-mercaptoethanol, protease inhibitors (complete mini, Roche) and phosphatase inhibitors (PhosSTOP mini, Roche). Lysates were incubated for 30 min on ice and centrifuged at 1200 rpm for 10 min at 4° C. Soluble supernatant was added to FLAG affinity resin (EZview Rad ANTI-FLAG M2 affinity gel, Sigma-Aldrich) equilibrated in low salt buffer (20 mM Tris, pH 7.5, 150 mM NaCl, 0.5 mM EDTA, 5 mM beta-mercaptoethanol) and incubated at 4° C. for 3 hours rotating. The resin was spun at 2000 rpm for 2 min and the supernatant was removed. The resin was washed two times with low salt buffer and one time with high salt buffer (20 mM Tris, pH 7.5, 500 mM NaCl, 0.5 mM EDTA, 5 mM beta-mercaptoethanol, protease inhibitors (complete mini, Roche) and phosphatase inhibitors (PhosSTOP mini, Roche). To elute the bound UCHL1, elution buffer (10 mM Tris, pH 7.5, 150 mM NaCl, 0.5 mM FDTA, 10% glycerol, 0.5% NP40, 5 mM beta-mercaptoethanol, 0.15 mg/ml 3×FLAG peptide (Sigma-Aldrich)) was added to the resin and incubated at 4° C. for 2.5 hours rotating. The resin was centrifuged at 4000 rpm for 30 seconds, and the supernatant containing purified FLAG-UCHL1 was removed and stored at −80° C.
# UCHL1 Biochemical IC50 Assay
# Dilution plates were prepared at 21 times the final concentration (2100 μM for a final concentration of 100 µM) in 50% DMSO in a 96-well polypropylene V-bottom plate (Greiner #651201). A typical 8-point dilution series to be 100, 30, 10, 3, 1, 0.3, 0.1, 0.03 μM final. Reactions were performed in duplicate in black 384 well plates (small volume, Greiner 784076) in a final reaction volume of 21 μl. Either 1 μl of 50% DMSO or diluted compound was added to the plate. UCHL1 was diluted in reaction buffer (20 mM Tris, pH 7.5, 100 mM NaCl, 0.05% Tween 20, 0.5 mg/ml BSA, 5 mM—beta mercaptoethanol) to the equivalent of 0.05 μl/well and 10 μl of diluted UCHL1 was added to the compound. Enzyme and compound were incubated for 30 min at room temp. Reactions were initiated by the addition of 50 nM of TAMRA labelled peptide linked to ubiquitin via an iso-peptide bond as fluorescence polarisation substrate. Reactions were read immediately after addition of substrate and following a 2 hr incubation at room temperature. Readings were performed on a Pherastar Plus (BMG Labtech). λ Excitation 540 nm; k Emission 590 nm.
row,SMILES,IC50 [µM]
1,"CC1CC(C(=O)Nc2cn(-c3ccccc3)cn2)CN1C#N (mixture of isomers) [Example 89, I-cyano-5-methyl-N-(1-phenyl-1H-imidazol-4-yl)pyrrolidine-3-carboxamide]",10 to 30
2,"CC1CC(C(=O)Nc2cc(-c3ccccc3)[nH]n2)CN1C#N (mixture of isomers) [Example 90, 1-cyano-5-methyl-N-(5-phenyl-1H-pyrazol-3-yl)pyrrolidine-3-carboxamide]",10 to 30
3,"N#CN1CCC(C(=O)Nc2nc(-c3ccccc3)cs2)C1 (stereo not drawn) [Example 9, 1-cyano-N-(4-phenylthiazol-2-yl)pyrrolidine-3-carboxamide]",10 to 30
4,"N#CN1CCC(C(=O)Nc2cnc(-c3ccccc3)s2)C1 (stereo not drawn) [Example 10, 1-cyano-N-(2-phenylthiazol-5-yl)pyrrolidine-3-carboxamide]",10 to 30
5,N#CN1CCC(C(=O)Nc2cc(-c3ccccc3)no2)C1 (stereo not drawn) [Example 13],1 to 10
6,"COc1ccc(-c2cc(NC(=O)C3CCN(C#N)C3)on2)cc1 (stereo not drawn) [Example 14, 1-cyano-N-(3-(4-methoxyphenyl)isoxazol-5-yl)pyrrolidine-3-carboxamide]",1 to 10
7,"N#CN1CCC(C(=O)Nc2cc(-c3ccccc3)on2)C1 (stereo not drawn) [Example 15, 1-cyano-N-(5-phenylisoxazol-3-yl)pyrrolidine carboxamide]",1 to 10
8,"CC(C)(C)c1cc(NC(=O)C2CCN(C#N)C2)no1 (stereo not drawn) [Example 16, N-(5-(tert-butyl)isoxazol-1-3-yl)-1-cyano-pyrrolidine-3-carboxamide]",10 to 30
9,"CC(C)(C)c1cc(NC(=O)C2CCN(C#N)C2)[nH]n1 (stereo not drawn) [Example 17, N-(3-(tert-butyl)-1H-pyrazol-5-yl)-1-cyano-pyrrolidine-3-carboxamide]",1 to 10
10,"N#CN1CCC(C(=O)Nc2nc3ccccc3s2)C1 (stereo not drawn) [Example 18, N-(benzo[d]thiazol-2-yl)-1-cyano-pyrrolidine-3-carboxamide]",1 to 10
11,"Cc1ccc2nc(NC(=O)C3CCN(C#N)C3)sc2c1 (stereo not drawn) [Example 19, 1-cyano-N-(6-methylbenzo[d]thiazol-2-yl)pyrrolidine-3-carboxamide]",1 to 10
12,"N#CN1CCC(C(=O)Nc2nc3ccc(C(F)(F)F)cc3s2)C1 (stereo not drawn) [Example 20, 1-cyano-N-(6-(trifluoro-methyl)benzo[d]thiazol-2-yl)pyrrolidine-3-carboxamide]",1 to 10
13,"COc1ccc2nc(NC(=O)C3CCN(C#N)C3)sc2c1 (stereo not drawn) [Example 21, 1-cyano-N-(6-methoxybenzo[d]thiazol-2-yl)pyrrolidine-3-carboxamide]",1 to 10
14,"N#CN1CCC(C(=O)Nc2nc3ccc(Br)cc3s2)C1 (stereo not drawn) [Example 22, N-(6-bromobenzo[d]thiazol-2-yl)-1-cyano-pyrrolidine-3-carboxamide]",1 to 10
15,"N#CN1CCC(C(=O)Nc2nc3ccccc3[nH]2)C1 (stereo not drawn) [Example 23, N-(1H-benzo[d]imidazol-2-yl)-1-cyano-pyrrolidine-3-carboxamide]",10 to 30
16,"N#CN1CCC(C(=O)Nc2ccccn2)C1 (stereo not drawn) [Example 24, 1-cyano-N-(pyridin-2-yl)pyrrolidine-3-carboxamide]",10 to 30
17,"N#CN1CCC(C(=O)Nc2ccc(Cl)cn2)C1 (stereo not drawn) [Example 25, N-(5-chloropyridin-2-yl)-1-cyano-pyrrolidine-3-carboxamide]",10 to 30
18,"Cc1ccc(NC(=O)C2CCN(C#N)C2)nc1 (stereo not drawn) [Example 26, 1-cyano-N-(5-methylpyridin-2-yl)pyrrolidine-3-carboxamide]",10 to 30
19,"COc1ccc(NC(=O)C2CCN(C#N)C2)nc1 (stereo not drawn) [Example 27, 1-cyano-N-(5-methoxy-pyridin-2-yl)pyrrolidine 3-carboxamide]",10 to 30

# Continued, values first:
row,IC50 [µM],SMILES
1,1 to 10,"CC1CC(C(=O)Nc2ncc(-c3ccccc3)s2)CN1C#N (mixture of isomers) [Example 88, 1-cyano-5-methyl-N-(5-phenylthiazol-2-yl)pyrrolidine-3-carboxamide]"
2,1 to 10,"C[C@@H]1CN(C#N)C[C@H]1C(=O)Nc1ncc(-c2ccccc2Cl)s1 (racemic) [Example 84, (±)-trans-N-(5-(2-chlorophenyl)thiazol-2-yl)-1-cyano-4-methylpyrrolidine-3-carboxamide]"
3,< 1,"CC[C@@H]1CN(C#N)C[C@H]1C(=O)Nc1ncc(-c2ccccc2)s1 (racemic) [Example 86, (±)-1-cyano-4-ethyl-N-(5-phenylthiazol-2-yl)pyrrolidine-3-carboxamide]"
4,< 1,"C[C@@H]1CN(C#N)C[C@H]1C(=O)Nc1ncc(N2CCCCC2)s1 (racemic) [Example 104, (±)-trans-1-cyano-4-methyl-N-(5-(piperidin-1-yl)thiazol-2-yl)pyrrolidine-3-carboxamide]"
5,< 1,"Cc1noc(C)c1-c1ccc2nc(NC(=O)[C@@H]3CN(C#N)C[C@H]3C(F)(F)F)cn2c1 (racemic) [Example 210, (±)-trans-1-cyano-N-(6-(3,5-dimethylisoxazol-4-yl)imidazo[1,2-a]pyridin-2-yl)-4-(trifluoromethyl)pyrrolidine-3-carboxamide]"
6,1 to 10,"N#CN1C[C@@H](C(=O)Nc2ncc(-c3ccccc3)s2)[C@H](c2cccnc2)C1 (relative stereo) [Example 282, trans-1-cyano-N-(5-phenylthiazol-2-yl)-4-(pyridin-3-yl)pyrrolidine-3-carboxamide]"
7,1 to 10,"N#CN1C[C@@H](C(=O)Nc2ncc(-c3ccccc3)s2)[C@H](c2cncnc2)C1 (relative stereo) [Example 283, trans-1-cyano-N-(5-phenylthiazol-2-yl)-4-(pyrimidin-5-yl)pyrrolidine-3-carboxamide]"
8,< 1,"N#CN1CC[C@H](C(=O)Nc2ncc(-c3ccccc3)s2)C1 [Example 1, (S)-1-cyano-N-(5-phenylthiazol-2-yl)pyrrolidine-3-carboxamide]"
9,< 1,"N#CN1CCC(C(=O)Nc2ncc(-c3cccc(F)c3)s2)C1 (stereo not drawn) [Example 2, 1-cyano-N-(5-(3-fluorophenyl)thiazol-2-yl)pyrrolidine-3-carboxamide]"
10,1 to 10,"N#CN1CCC(C(=O)Nc2ncc(-c3ccccc3F)s2)C1 (stereo not drawn) [Example 3, 1-cyano-N-(5-(2-fluorophenyl)thiazol-2-yl)pyrrolidine-3-carboxamide]"
11,< 1,"N#CN1CCC(C(=O)Nc2ncc(-c3ccc(Cl)cc3)s2)C1 (stereo not drawn) [Example 4, N-(5-(4-chlorophenyl)thiazol-2-yl)-1-cyano-pyrrodine-3-carboxamide]"
12,1 to 10,"N#CN1CCC(C(=O)Nc2ncc(-c3cccc(Cl)c3)s2)C1 (stereo not drawn) [Example 5, N-(5-(3-chlorophenyl)thiazol-2-yl)-1-cyano-pyrrolidine-3-carboxamide]"
13,1 to 10,"N#CN1CCC(C(=O)Nc2ncc(-c3ccccc3Cl)s2)C1 (stereo not drawn) [Example 6, N-(5-(2-chlorophenyl)thiazol-2-yl)-1-cyano-pyrrolidine-3-carboxamide]"
14,1 to 10,"Cc1cnc(NC(=O)C2CCN(C#N)C2)s1 (stereo not drawn) [Example 7, 1-cyano-N-(5-methylthiazol-2-yl)pyrrolidine-3-carboxamide]"
15,1 to 10,"CC(C)(C)c1cnc(NC(=O)C2CCN(C#N)C2)s1 (stereo not drawn) [Example 8, N-(5-(tert-butyl)thiazol-2-yl)-1-cyano-pyrrolidine-3-carboxamide]"
16,1 to 10,"N#CN1CCC(C(=O)Nc2nnc(-c3ccccc3)s2)C1 (stereo not drawn) [Example 11, 1-cyano-N-(5-phenyl-1,3,4-thiadiazol-2-yl)pyrrolidine-3-carboxamide]"
17,1 to 10,"CCc1nnc(NC(=O)C2CCN(C#N)C2)s1 (stereo not drawn) [Example 12, 1-cyano-N-(5-ethyl-1,3,4-thiadiazol-2-yl)pyrrolidine-3-carboxamide]"
